Data from US20060147516A1, “Taste masking system for alprazolam” (CIMA LABS INC., priority 2005, published 2006).

Assay: Solubility of alprazolam in ethanol (coating solvent)
Type: physicochemical
Conditions: at working concentrations in ethanol
Protocol: The resulting particles were discreet, non-tacky and exceptionally workable. By working with various materials, and without wishing to be bound by a particular theory, it was determined that certain drugs react and/or interact with the polymer materials in the taste masking coating material, changing their individual characters rendering the material more tacky. The present invention intends to encompass only those active pharmaceutical ingredients that would not so adversely affect workability so as to prevent their effective use in forming discrete, preferably free flowing, well coated, well characterized solid supports, which may be further coated. Active pharmaceutical ingredients that may be used in addition to alprazolam in accordance with the present invention may include, without limitation, analgesics, anti-inflammatories, antipyretics, antibiotics, antimicrobials, anxiolytics, laxatives, anorexics, antihistamines, antidepressants, antiasthmatics, antidiuretics, antiflatuents, antimigraine agents, antispasmodics, sedatives, antihyperactives, antihypertensives, tranquilizers, decongestants, beta blockers, peptides, proteins, oligonucleotides and other substances of biological origin, and combinations thereof. Also contemplated are the drugs and pharmaceutically active ingredients described in Mantelle, U.S. Pat. No. 5,234,957, in columns 18 through 21. […]

Cc1nnc2n1-c1ccc(Cl)cc1C(c1ccccc1)=NC2 [alprazolam]
solubility in ethanol: sparingly soluble
